Measured values from patent publication US7659310B2, “Methods of enhancing solubility of agents” (Formatech, Inc., priority 2004, dated 2010).
In brackets after ≈: the same amount, converted by molar mass. Several values for one entry are separate records, joined by “and”; a condition that tells them apart may be missing. Identical values can stand only once. Like-named read-outs stand apart in the source and are kept apart here. Each block holds one compound with its values, some of them ahead of it.

Columns and labels:
[1] = Solubilization of compounds in fatty acid / fatty acid salt (soluble, formulation clear); conditions: for solubility: aqueous with cosolvent or surfactant or cyclodextrin
Experimental: (§1) Ethanolamine (8 μL) was subsequently added and mixed using a VORTEX®. After mixing, the sample was dispersed in 466 μL of water for injection.
(§2) Ethanolamine (62 μL) was subsequently added and mixed using a VORTEX®. After mixing, the sample was dispersed in 784 μL of water for injection.
(§3) Digoxin (1 mg) was added to 28 μL of oleic acid and mixed using VORTEX. Ethanolamine (6 μL) was subsequently added and mixed using a VORTEX®. After mixing, the sample was dispersed in 966 μL of water for injection.
(§4) Digoxin (1 mg) was added to 1 mL of 0.25 M sodium oleate and mixed using a VORTEX®.
(§5) N-acetylsalicylic acid (18 mg) was added to 31 μL of oleic acid and mixed using a VORTEX®. Ethanolamine (6 μL) was subsequently added and mixed using a VORTEX®. After mixing, the sample was dispersed in 963 μL of water for injection.
(§6) N-acetylsalicylic acid (25 mg) was added to 1 mL of 0.25 M sodium oleate and mixed using a VORTEX®.
(§7) Paclitaxel (18 mg) was added to 31 μL of oleic acid and mixed using a VORTEX®. Ethanolamine (6 μL) was subsequently added and mixed using a VORTEX®. After mixing, the sample was dispersed in 963 μL of water for injection.
(§8) Paclitaxel (5.6 mg) was added to 1 mL of 0.1 M sodium oleate and mixed using a VORTEX®.
(§9) Paclitaxel (2 mg) was added to 1 mL of 1 M sodium caprylate and mixed by a VORTEX®.
Paclitaxel (7.2 mg) was added to 1 mL of 1 M sodium linoleate and mixed using a VORTEX®.
For example, β-Lapachone was dissolved (25 mg/mL) in ethanol:oleic acid (EtOH:OA) at volume to volume ratios of 70%:30%, 75%:25%, or 80%:20% EtOH:OA.
In another example, β-Lapachone was dissolved (50 mg/mL) in dimethylsulfoxide:oleic acid (DMSO:OA) at volume to volume ratios of 60%:40, 70%:30% DMSO:OA or in DMSO:EtOH:OA (30%:30%:40% v/v).
For example, Propofol (1% v/v or 10 mg/mL) was dissolved in 100 mM sodium oleate in 5% (w/v) dextrose in water for injection. The resulting solution containing 1% Propofol was lyophilized.
For example, Paclitaxel (5 mg/mL) was dissolved in 100 mM sodium oleate in 100% ethanol. Ethanol was completely evaporated using rotary evaporation at 20° C. The Paclitaxel-sodium oleate was reconstituted with WFI or 2.5% glycerol to provide 5 mg/mL, 10 mg/mL, or 20 mg/mL concentration of Paclitaxel.

[2] = Stability of the solubilized compound (remains soluble) by reverse phase HPLC
Experimental: as §1, §2, §3, §4, §5, §6, §7, §8, §9
Paclitaxel (7.2 mg) was added to 1 mL of 1 M sodium linoleate and mixed using a VORTEX®. […]
For example, Propofol (1% v/v or 10 mg/mL) was dissolved in 100 mM sodium oleate in 5% (w/v) dextrose in water for injection. The resulting solution containing 1% Propofol was lyophilized. […]

SMILES: CC(C)c1cccc(C(C)C)c1O [Propofol]
- concentration dissolved ([1]; 100 mM sodium oleate in 5% (w/v) dextrose in water for injection (1% v/v)): 10000 µg/mL
- stability of reconstituted lyophilized compound ([2]; 1% in 100 mM sodium oleate/D5W, lyophilized and reconstituted, RP-HPLC): stable without degradation or impurities

- solubility ([1]; concentration at which soluble and formulation clear, 0.25 M sodium oleate): 1000 µg/mL
- solubility ([1]; concentration at which soluble and formulation clear, oleic acid, then ethanolamine, dispersed in water for injection): 1000 µg/mL
- time remained soluble, formulation stable upon dilution ([2]; 0.25 M sodium oleate, dilution 1:10 in saline, RP-HPLC): up to 24 hours
- time remained soluble, formulation stable upon dilution ([2]; oleic acid/ethanolamine formulation, dilution 1:4 in saline, RP-HPLC): up to 24 hours
SMILES: C[C@H]1O[C@@H](O[C@H]2[C@@H](O)C[C@H](O[C@H]3[C@@H](O)C[C@H](O[C@H]4CC[C@@]5(C)[C@H](CC[C@@H]6[C@@H]5C[C@@H](O)[C@]5(C)[C@@H](C7=CC(=O)OC7)CC[C@]65O)C4)O[C@@H]3C)O[C@@H]2C)C[C@H](O)[C@@H]1O [Digoxin]

SMILES: CC1(C)CCC2=C(O1)c1ccccc1C(=O)C2=O [β-Lapachone]
- final concentration of the dispersed compound ([1]; OA-DMSO/EtOH mixture dispersed in equimolar sodium hydroxide solution): 1.5 mg/mL and 2.0 mg/mL and 2.5 mg/mL
- concentration dissolved ([1]; in DMSO:OA 60%:40, 70%:30% or DMSO:EtOH:OA 30%:30%:40% v/v): 50000 µg/mL
- concentration dissolved ([1]; in ethanol:oleic acid 70%:30%, 75%:25% or 80%:20% v/v): 25000 µg/mL

- concentration at which soluble and formulation clear [1]: 25000 µg/mL
- solubility ([1]; concentration at which soluble and formulation clear): 18000 µg/mL (≈ 99.9 mM)
- time remained soluble, formulation stable upon dilution [2]: up to 24 hours
SMILES: CC(=O)Oc1ccccc1C(=O)O [N-acetylsalicylic acid]

- fold greater than the solubility in water [1]: 630-850 fold
- concentration dissolved ([1]; 100 mM sodium oleate in 100% ethanol): 5000 µg/mL
- solubility ([1]; solubilization): 6300 to 8500 µg/mL (≈ 7.38 to 9.95 mM)
- time remained soluble, formulation stable upon dilution [2]: up to 24 hours
SMILES: CC(=O)O[C@H]1C(=O)[C@@]2(C)[C@H]([C@H](OC(=O)c3ccccc3)[C@]3(O)C[C@H](OC(=O)[C@H](O)[C@@H](NC(=O)c4ccccc4)c4ccccc4)C(C)=C1C3(C)C)[C@]1(OC(C)=O)CO[C@@H]1C[C@@H]2O [Paclitaxel]
